For one test, the target named is T1, nLucOGG1 in HeLa cells (Homo sapiens, UniProt O15527).
T1 construct: thermal shift read by NanoGlo luminescence
Briefly: Cellular Thermal Shift Assay to measure compound affinity for nLucOGG1 in HeLa cells (CETSA DTm). Conditions: 10 μM compound, 37° C. 60 min, Tm vs DMSO control. The format is cell-based. As to the method: Biological Example 2: Cellular Thermal Shift Assay to Measure Compound Affinity for ^nLucOGG1 in HeLa Cells (CETSA DTm)
Cell Culture and Transfection of Hela Cells with ^nLucOGG1: For all tests, Hela cells were maintained in growth medium, Dulbecco's Minimum Eagle Medium (Multicell: Cat #319-005-CL) supplemented with 10% heat-inactivated fetal bovine serum (Gibco: Cat #12484-028) at 37° C. and 5% CO2 in a humidified tissue culture incubator. Transient transfections were performed using the Lonza 4-D Nucleofector X unit according to the manufacturer's protocol (Lonza Cat #V4XC-1024). Briefly, for each transfection, 1.2×10^6 cells were centrifuged at 1000 RPM for 5 minutes at room temperature before being diluted in 100 μL SE solution containing 18% v/v supplement and 1.5 μg pNF1-N-empty or pNF1-N-OGG1a vector. The total volume was transferred to a 100 μL nucleofection cuvette prior to transfer to the apparatus where HeLa cell nucleofection protocol CN-114 was executed. Following nucleofection, 500 μL complete media was added to the cells in the cuvette before transferring to a 6-well dish containing 1.5 mL of complete media. Cells were left to incubate for 48 hours before performing all cellular thermal shift experiments.
Cellular Thermal Shift Assays for Target Engagement (CETSA): Forty-eight hours following nucleofection, cells were washed once with DPBS−/−(Multicell: Cat #311-425-CL) and lifted with 0.25% Trypsin-EDTA (Multicell: Cat #325-043-CL) prior to dilution in growth medium and centrifugation at 1000 RPM for 5 minutes at room temperature. The resulting cell pellet was then resuspended in growth medium, cells were counted and the volume adjusted to 500 k cells/mL (2×).
For delta Tm determination, OGG1 inhibitor compounds were dissolved in DMSO to a final working concentration of 20 mM. Working solutions were then diluted in complete media to 20 μM or 0.1% DMSO for the vehicle control (2×). 2×OGG1 inhibitor compound solutions or 0.1% DMSO control were then pre-dispensed into MicroAmp Optical 96-well PCR reaction plates (Applied Biosystems: Cat #4346906) at 50 μL/well. Next, 50 μL or 25 k cells/well from the 2× cell suspension was added to the pre-loaded PCR plates. All plates were prepared as duplicates, covered with adhesive plate sealers (Perkin Elmer: Cat #6050185) and left to incubate at 37° C. for 60 minutes. During incubation, sufficient NanoGlo luciferase assay reagents (Promega: Cat #N1120) were left to equilibrate to room temperature in the dark. Immediately before heating the plates, the NanoGlo substrate was mixed with the NanoGlo buffer at a 1:50 ratio. The thermal cycler (Veriti 96-Well Thermal Cycler, Thermo Fisher Scientific) was allowed to reach the designated temperature prior to placement of the PCR plate into the heating block. For Tm determination experiments, duplicate plates containing a fixed concentration of test compound (10 μM final) as well as vehicle control were prepared to perform a 12-point temperature gradient spanning 37-70° C. for 3 minutes. Therefore, two thermal cycler protocols were set up covering two 6-step temperature gradients ranging from 37-52° C. and 52-70° C. Plates were then allowed to cool at room temperature for 5 minutes after the heat treatment followed by transfer of 75 μL of the reaction into a 96-well white polystyrene microplate (Corning: Cat #CLS3903) and addition of 75 μL of the prepared NanoGlo mixture. Microplates were then left to shake in the dark for 5 minutes before total luminescence was measured on a SpectraMax IX3 plate reader. The luminescence value obtained at each temperature was normalized to the luminescence obtained at 37° C. and the ratio obtained was plotted against the temperature. A Boltzman Sigmoidal non-linear regression was applied to the resulting data to determine Tm values and the difference between the Tm value for a given OGG1 inhibitor relative to the DMSO vehicle control was the delta Tm.

Test [1] deals with T2, hOGG1 (Homo sapiens, UniProt O15527). As to the kind of experiment: Surface Plasma Resonance with hOGG1 to measure compound affinity (OGG1 SPR Kd). It counts as binding. Set-up: Protein His-hOGG1 (12-323) was prepared. The following applies: Biacore T-200, immobilized his-tagged OGG1; pH 7.4; 2% DMSO; single-cycle kinetics. As to the method:
Surface Plasma Resonance with hOGG1 to Measure Compound Affinity (OGG1 SPR Kd); All the SPR studies were performed on a Biacore T-200 instrument (Cytiva life sciences) using series S NTA sensor chip (cat #BR-1005-32, Cytiva life sciences). Recombinant his-tagged OGG1 (mol. wt. 36003; ChemPartner, Shanghai, China) was immobilized on NTA sensor chip via Ni^2+/NTA chelation using NTA reagent kit (Cytiva life sciences; cat #289950) as per manufacturer's recommended protocol. The running buffer during immobilization contained HEPES (20 mM, pH 7.4), 150 mM NaCl, 0.5 mM TCEP (tris(2-carboxyethyl)phosphine), and 0.005% Tween-20. NTA sensor chip (experimental cell) was first conditioned by injecting regeneration solution (350 mM EDTA, flow rate 30 μL/min, 2 injections 60 each). Additional wash with 50 mM NaOH was used whenever the chip was regenerated (flow rate 30 μL/min, 1 injection of 60 s). The sensor chip was then activated with 0.5 mM NiCl2 (flow rate 10 μL/min, 2 injection of 60 s, leading to a baseline increase of ~40 RU), and the excess Ni^2+ was removed using immobilization buffer containing 3 mM EDTA (flow rate 10 μL/min, 1 injection of 60 s). Finally, OGG1 (diluted to 6.2 μg/mL in running buffer) was injected on the activated sensor chip at a flow rate of 10 μL/min until immobilization level reached ~6000 RU. Any loosely bound protein was removed by passing the immobilization buffer overnight at 20 μL/min. At this point, the drift in baseline was ~0.01 RU/s and the final immobilization level was ~2500 RU. Reference cell was left untreated. SPR binding experiments were performed using binding buffer (20 mM HEPES (pH 7.4), 150 mM NaCl, 0.5 mM TCEP, 0.005% Tween-20, and 2% DMSO) at a flow rate of 30 μL/min. Single-cycle kinetics approach was used for binding analysis which consisted of sequential injections of increasing concentrations of test compound (a 3-fold serial dilution with 5 concentrations; highest 750 or 1500 nM; with final DMSO concentration at 2%) over the immobilized protein without regeneration step between each sample injection. Each injection was 45 seconds long (contact time), followed by a final dissociation of 600 sec. The Biacore T-200 Evaluation software 3.1 (GE Healthcare) was used to determine kinetic parameters from SPR data. All the reported sensograms were reference subtracted and corrected for refractive index contributions from solvent using 8-point solvent correction (1.4 to 2.8% DMSO in binding buffer). Data were fit to both steady state and 1:1 kinetic model to obtain Kon, Koff and binding affinity (Kd).
In general terms: Surface plasmon resonance follows binding to a sensor surface in real time, without labels.

In test [2] the target is T2, hOGG1. As to the kind of experiment: Biochemical fluorescence assay to measure enzymatic activity of hOGG1 (OGG1/APEX IC50). Set-up: Protein His-hOGG1 (12-323) was prepared; His (N); host or cells: E. coli. Conditions: 1 nM OGG1+2 nM APEX+6 nM dsDNA (8-oxo-dG substrate); pH 7.5; RT 40 min; read-out: OGG1/APEX IC50. The gist of the method: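 Coupled glycosylase/AP-endonuclease read-out: 8-oxo-dG-containing dsDNA (6 nM) cleaved by 1 nM His-hOGG1 (12-323) plus 2 nM APEX1 over 40 min at room temperature, after 20 min enzyme–compound preincubation; buffer 20 mM Tris pH 7.5, 100 mM KCl, 0.1% BSA, 0.01% Tween. IC50 comes from sigmoidal 3-parameter fitting of % inhibition derived from TAMRA signal.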

Each structure is given as a SMILES string.

T2 sequence (O15527 12-323): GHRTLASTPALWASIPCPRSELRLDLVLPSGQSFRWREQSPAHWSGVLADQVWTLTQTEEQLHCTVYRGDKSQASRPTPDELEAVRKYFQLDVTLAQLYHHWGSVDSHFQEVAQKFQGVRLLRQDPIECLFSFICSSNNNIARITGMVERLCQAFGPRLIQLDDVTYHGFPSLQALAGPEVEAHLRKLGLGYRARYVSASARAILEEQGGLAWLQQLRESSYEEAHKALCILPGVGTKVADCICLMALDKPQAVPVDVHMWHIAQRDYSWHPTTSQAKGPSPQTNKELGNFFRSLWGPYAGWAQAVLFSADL
T1 sequence (O15527 whole entry): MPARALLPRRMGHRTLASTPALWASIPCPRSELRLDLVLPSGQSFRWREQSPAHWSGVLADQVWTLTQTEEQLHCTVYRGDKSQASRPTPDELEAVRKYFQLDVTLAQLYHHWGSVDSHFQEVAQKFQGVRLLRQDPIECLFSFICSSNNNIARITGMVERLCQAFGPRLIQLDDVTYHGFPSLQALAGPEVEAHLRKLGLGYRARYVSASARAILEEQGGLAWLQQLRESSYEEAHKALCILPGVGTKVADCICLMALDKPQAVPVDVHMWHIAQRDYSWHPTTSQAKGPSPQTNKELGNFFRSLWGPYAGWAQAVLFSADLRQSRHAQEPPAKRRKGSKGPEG

For `COc1ccc(NC(=O)[C@]2(C)CC[C@@H](N3Cc4c(C)ccc(OC)c4NC3=O)CC2)cc1Cl` (single isomer, unassigned) [Example 6, (1r,4r)-N-(3-Chloro-4-methoxyphenyl)-4-(8-methoxy-5-methyl-2-oxo-1,2-dihydroquinazolin-3(4H)-yl)-1-methylcyclohexanecarboxamide], at nLucOGG1 in HeLa cells, the ΔTm – broadly, the change in melting temperature against a reference sample – at 10 µM was not above 6 °C. In addition, at hOGG1 [1], the equilibrium dissociation constant (Kd) (commonly the free concentration of one partner at which half of the binding sites on the other are occupied at equilibrium, for simple one-to-one binding) was more than 1000 nM.
Turning to `Cc1cc(NCCN(C)C)cc2c1CN([C@H]1CC[C@@H](C(=O)Nc3cc4ccccc4[nH]3)CC1)C2=O` [Example 271, (1s,4s)-4-(6-(2-(dimethylamino)ethylamino)-4-methyl-1-oxoisoindolin-2-yl)-N-(1H-indol-2-yl)cyclohexanecarboxamide], the Kd on hOGG1 [1] fell in the range of 10 to 100 nM. At hOGG1 [2], the IC50 is less than 100 nM.
`COc1ccc(NC(=O)[C@]2(C)CC[C@@H](N3Cc4c(C)ccc(OC)c4NC3=O)CC2)cc1C` (single isomer, unassigned) [Example 10, (1r,4r)-N-(3-methyl-4-methoxyphenyl)-4-(8-methoxy-5-methyl-2-oxo-1,2-dihydroquinazolin-3(4H)-yl)-1-methylcyclohexanecarboxamide]: at nLucOGG1 in HeLa cells, the thermal shift (ΔTm) at 10 µM is not above 6 °C. On hOGG1 [1], this compound returned a Kd of more than 1000 nM.
On the same counts, the results for `COc1cc(NC(=O)[C@]2(C)CC[C@@H](N3Cc4c(C)ccc(OC)c4NC3=O)CC2)ccc1C` [Example 12, (1r,4r)-N-(3-Methoxy-4-methylphenyl)-4-(8-methoxy-5-methyl-2-oxo-1,2-dihydroquinazolin-3(4H)-yl)-1-methylcyclohexanecarboxamide] are not above 6 °C and more than 1000 nM.
On the same counts, the results for `COc1ccc(NC(=O)[C@]2(C)CC[C@@H](N3Cc4c(C)ccc(OC)c4NC3=O)CC2)cc1C#N` (single isomer, unassigned) [Example 8, (1r,4r)-N-(3-cyano-4-methoxyphenyl)-4-(8-methoxy-5-methyl-2-oxo-1,2-dihydroquinazolin-3(4H)-yl)-1-methylcyclohexanecarboxamide] are not above 6 °C and more than 1000 nM.

The values are drawn from patent US20260317356A1, “SMALL MOLECULE MODULATORS OF OGG1” (AZKARRA THERAPEUTICS, INC., priority 2023, published 2026).
